In patent US20240226343A1, “NEUROPEPTIDE Y1 RECEPTOR (NPY1R) TARGETED THERAPEUTICS AND USES THEREOF” (RADIONETICS ONCOLOGY, INC., priority 2022, published 2024):
pKi: −log10 of the molar value. Where two headings read alike, the source gives them in different places.

Biological target: T1, hNPY1R (Homo sapiens, UniProt P25929)
T1 construct: SK-N-MC cells endogenously expressing the NPY1R receptor; endogenous in cells; host or cells: SK-N-MC cells (crude membrane fractions)
T1 sequence (P25929 1-384): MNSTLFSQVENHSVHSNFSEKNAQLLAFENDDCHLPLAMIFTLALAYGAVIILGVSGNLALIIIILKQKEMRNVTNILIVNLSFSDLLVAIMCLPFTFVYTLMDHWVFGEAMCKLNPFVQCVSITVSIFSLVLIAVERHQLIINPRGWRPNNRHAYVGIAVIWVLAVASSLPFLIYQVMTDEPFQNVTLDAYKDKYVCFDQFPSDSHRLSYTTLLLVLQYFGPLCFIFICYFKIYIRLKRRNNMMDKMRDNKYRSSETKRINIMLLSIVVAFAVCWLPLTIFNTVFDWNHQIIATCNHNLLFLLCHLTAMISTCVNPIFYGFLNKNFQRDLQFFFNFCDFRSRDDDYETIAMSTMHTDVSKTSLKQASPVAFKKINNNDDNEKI
Assay: NPY1R binding assay: SK-N-MC membranes, [125I]-Peptide YY (human) competition

[1] = data obtained after 120 minutes at rt, SK-N-MC membranes, [125I]-Peptide YY, read-out: hNPY.R binding Ki* ††
[2] = data obtained after 60 minutes at 37° C., SK-N-MC membranes, [125I]-Peptide YY 0.05 nM, read-out: hNPY1R binding Ki* †

SMILES | pKi [1] | further results
CCC(=O)NCCNC(=O)/N=C(/N)NCCC[C@@H](NC(=O)C(c1ccccc1)c1cccc(OCCCCNC(=O)[C@@H](Cc2ccc(-c3ccccc3)cc2)NC(=O)CCNC(=O)CN2CCN(CC(=O)O)CCN(CC(=O)O)CCN(CC(=O)O)CC2)c1)C(=O)NCc1ccc(O)cc1 (stereo partly drawn) [Compound 149, 2,2′,2″-(10-(2-((3-(((2R)-3-([1,1′-biphenyl]-4-yl)-1-((4-(3-((4R,Z)-9-amino-4-((4-hydroxybenzyl)carbamoyl)-2,11,16-trioxo-1-phenyl-3,8,10,12,15-pentaazaoctadec-9-en-1-yl)phenoxy)butyl)amino)-1-oxopropan-2-yl)amino)-3-oxopropyl)amino)-2-oxoethyl)-1,4,7,10-tetraazacyclododecane-1,4,7-triyl)triacetic acid] | > 8.00 | –
CCC(=O)NCCNC(=O)/N=C(/N)NCCC[C@@H](NC(=O)C(c1ccccc1)c1ccc(NC(=O)CCOCCOCCOCCOCCNC(=O)CN2CCN(CC(=O)O)CCN(CC(=O)O)CCN(CC(=O)O)CC2)cc1)C(=O)NCc1ccc(O)cc1 (single isomer, unassigned) [Compound 102A] | – | pKi [2]: 7.00 to 8.00
CCC(=O)NCCNC(=O)/N=C(/N)NCCC[C@@H](NC(=O)C(c1ccccc1)c1cccc(OCCCCNC(=O)CCCCCNC(=O)CN2CCN(CC(=O)O)CCN(CC(=O)O)CCN(CC(=O)O)CC2)c1)C(=O)NCc1c(F)cc(O)cc1F (single isomer, unassigned) [Compound 161A] | > 8.00 | –
CCC(=O)NCCNC(=O)/N=C(/N)NCCC[C@@H](NC(=O)C(c1ccccc1)c1ccc(NC(=O)CCOCCOCCOCCOCCNC(=O)CN2CCN(CC(=O)O)CCN(CC(=O)O)CCN(CC(=O)O)CC2)cc1)C(=O)NCc1ccc(O)cc1 (single isomer, unassigned) [Compound 102B] | – | pKi [2]: 7.00 to 8.00
CCC(=O)NCCNC(=O)/N=C(/N)NCCC[C@@H](NC(=O)C(c1ccccc1)c1cccc(OCCCCNC(=O)NOCCNC(=O)CN2CCN(CC(=O)O)CCN(CC(=O)O)CCN(CC(=O)O)CC2)c1)C(=O)NCc1c(F)cc(O)cc1F (single isomer, unassigned) [Compound 163B] | > 8.00 | –
CCC(=O)NCCNC(=O)/N=C(/N)NCCC[C@@H](NC(=O)C(c1ccccc1)c1cccc(OCCCCNC(=O)CCNC(=O)CN2CCN(CC(=O)O)CCN(CC(=O)O)CCN(CC(=O)O)CC2)c1)C(=O)NCc1c(F)cc(O)cc1F (single isomer, unassigned) [Compound 162A] | > 8.00 | –
CCC(=O)NCCNC(=O)/N=C(/N)NCCC[C@@H](NC(=O)C(c1ccccc1)c1ccc(NCCCNC(=O)[C@H](N)CCCNC(=O)CN2CCN(CC(=O)O)CCN(CC(=O)O)CCN(CC(=O)O)CC2)cc1)C(=O)NCc1ccc(O)cc1 (single isomer, unassigned) [Compound 135B] | > 8.00 | –
CCNC(=O)/N=C(/N)NCCC[C@@H](NC(=O)C(c1ccccc1)c1ccc(NCCCNC(=O)[C@H](N)CCCNC(=O)[C@@H](Cc2ccc(-c3ccccc3)cc2)NC(=O)CN2CCN(CC(=O)O)CCN(CC(=O)O)CCN(CC(=O)O)CC2)cc1)C(=O)NCc1ccc(O)cc1 (single isomer, unassigned) [Compound 151] | > 8.00 | –
CCC(=O)NCCNC(=O)/N=C(/N)NCCC[C@@H](NC(=O)C(c1ccccc1)c1ccc(NCCCNC(=O)[C@H](N)CCC(=O)NCCN(C)CCNC(=O)CN2CCN(CC(=O)O)CCN(CC(=O)O)CCN(CC(=O)O)CC2)cc1)C(=O)NCc1ccc(O)cc1 (single isomer, unassigned) [Compound 145A] | > 8.00 | –
CCC(=O)NCCNC(=O)/N=C(/N)NCCC[C@@H](NC(=O)C(c1ccccc1)c1cccc(OCCCCNC(=O)CCOCCOCCOCCOCCOCCOCCOCCOCCOCCOCCOCCOCCOCCOCCOCCOCCOCCOCCOCCOCCOCCOCCOCCOCCOCCOCCOCCOCCOCCOCCOCCOCCOCCOCCOCCOCCNC(=O)CN2CCN(CC(=O)O)CCN(CC(=O)O)CCN(CC(=O)O)CC2)c1)C(=O)NCc1ccc(O)cc1 (some centres unmarked) [Compound 126] | 7.00 to 8.00 | –
CCC(=O)NCCNC(=O)/N=C(/N)NCCC[C@@H](NC(=O)C(c1ccccc1)c1cccc(OCCCCNC(=O)CCNC(=O)CN2CCN(CC(=O)O)CCN(CC(=O)O)CCN(CC(=O)O)CC2)c1)C(=O)NCc1c(F)cc(O)cc1F (single isomer, unassigned) [Compound 162B] | > 8.00 | –
CCC(=O)NCCNC(=O)/N=C(/N)NCCC[C@@H](NC(=O)C(c1ccccc1)c1ccc(NCCCNC(=O)CN2CCC(NC(=O)CN3CCN(CC(=O)O)CCN(CC(=O)O)CCN(CC(=O)O)CC3)CC2)cc1)C(=O)NCc1ccc(O)cc1 (single isomer, unassigned) [Compound 133A] | > 8.00 | –
CCC(=O)NCCNC(=O)/N=C(/N)NCCC[C@@H](NC(=O)C(c1ccccc1)c1ccc(OCCCNc2c(NCCNC(=O)CN3CCN(CC(=O)O)CCN(CC(=O)O)CCN(CC(=O)O)CC3)c(=O)c2=O)cc1)C(=O)NCc1ccc(O)cc1 (single isomer, unassigned) [Compound 136A] | – | pKi (read-out: hNPY.R binding Ki* ††): > 8.00
CCC(=O)NCCNC(=O)/N=C(/N)NCCC[C@@H](NC(=O)C(c1ccccc1)c1ccc(NCCCNC(=O)CCOCCOCCNC(=O)CN2CCN(CC(=O)O)CCN(CC(=O)O)CCN(CC(=O)O)CC2)cc1)C(=O)NCc1ccc(O)cc1 (single isomer, unassigned) [Compound 103A] | – | pKi [2]: 7.00 to 8.00
CCC(=O)NCCNC(=O)/N=C(/N)NCCC[C@@H](NC(=O)C(c1ccccc1)c1ccc(NCCCNC(=O)[C@@H](CCCNC(=O)CN2CCN(CC(=O)O)CCN(CC(=O)O)CCN(CC(=O)O)CC2)NC(=O)CCCc2ccc(I)cc2)cc1)C(=O)NCc1ccc(O)cc1 (single isomer, unassigned) [Compound 153] | > 8.00 | –
CCC(=O)NCCNC(=O)/N=C(/N)NCCC[C@@H](NC(=O)C(c1ccccc1)c1cccc(OCCOCCOCCOCCNC(=O)CN2CCN(CC(=O)O)CCN(CC(=O)O)CCN(CC(=O)O)CC2)c1)C(=O)NCc1ccc(O)cc1 (stereo partly drawn) [Compound 104, 2,2′,2″-(10-(14-(3-((4R,Z)-9-amino-4-((4-hydroxybenzyl)carbamoyl)-2,11,16-trioxo-1-phenyl-3,8,10,12,15-pentaazaoctadec-9-en-1-yl)phenoxy)-2-oxo-6,9,12-trioxa-3-azatetradecyl)-1,4,7,10-tetraazacyclododecane-1,4,7-triyl)triacetic acid] | – | pKi [2]: > 8.00
CCC(=O)NCCNC(=O)/N=C(/N)NCCC[C@@H](NC(=O)C(c1ccccc1)c1ccc(NCCCNc2c(NCCNC(=O)[C@@H](CN)NC(=O)CN3CCN(CC(=O)O)CCN(CC(=O)O)CCN(CC(=O)O)CC3)c(=O)c2=O)cc1)C(=O)NCc1ccc(O)cc1 (single isomer, unassigned) [Compound 137B] | > 8.00 | –
CCC(=O)NCCNC(=O)/N=C(/N)NCCC[C@@H](NC(=O)C(c1ccccc1)c1ccc(NCCCNC(=O)NOCCNC(=O)CN2CCN(CC(=O)O)CCN(CC(=O)O)CCN(CC(=O)O)CC2)cc1)C(=O)NCc1ccc(O)cc1 (single isomer, unassigned) [Compound 160] | 7.00 to 8.00 | –
CCC(=O)NCCNC(=O)/N=C(/N)NCCC[C@@H](NC(=O)C(c1ccccc1)c1ccc(NCCNC(=O)[C@H](N)CCCNC(=O)CN2CCN(CC(=O)O)CCN(CC(=O)O)CCN(CC(=O)O)CC2)cc1)C(=O)NCc1ccc(O)cc1 (single isomer, unassigned) [Compound 143B] | > 8.00 | –
CCC(=O)NCCNC(=O)/N=C(/N)NCCC[C@@H](NC(=O)C(c1ccccc1)c1cccc(OCCCCNC(=O)CC[C@@H](NC(=O)CN2CCN(CC(=O)O)CCN(CC(=O)O)CCN(CC(=O)O)CC2)C(=O)O)c1)C(=O)NCc1ccc(O)cc1 (single isomer, unassigned) [Compound 110B] | – | pKi [2]: > 8.00
